Assay results reported in US9522928B2, “Mannosylated compounds useful for the prevention and the treatment of infectious diseases” (UNIVERSITE DE STRASBOURG, priority 2011, dated 2016).
“Also recorded” adds a separate entry of the source. Like-named read-outs stand apart in the source and are kept apart here.

Legend:
DC-SIGN CRD = target: T1, DC-SIGN CRD (Homo sapiens, UniProt Q9NNX6); test: Surface plasmon resonance (SPR) binding to immobilised DC-SIGN CRD
T1 construct: human DC-SIGN (Lys62-Ala404, from R§D Systems); purchased R&D Systems ('R§D Systems' [sic])
T1 sequence (Q9NNX6 62-404): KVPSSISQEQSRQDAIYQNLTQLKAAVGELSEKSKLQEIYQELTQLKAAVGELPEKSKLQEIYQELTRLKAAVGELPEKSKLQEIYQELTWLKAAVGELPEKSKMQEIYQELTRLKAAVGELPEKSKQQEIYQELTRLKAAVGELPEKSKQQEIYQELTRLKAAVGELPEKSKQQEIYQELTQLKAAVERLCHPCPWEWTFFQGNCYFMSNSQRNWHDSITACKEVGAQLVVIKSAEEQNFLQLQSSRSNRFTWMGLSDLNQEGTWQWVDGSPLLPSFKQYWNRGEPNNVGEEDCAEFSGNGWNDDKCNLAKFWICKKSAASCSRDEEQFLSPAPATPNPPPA
Procedure: SPR experiments were performed using a Biacore 3000. […] Biosensor assays were performed with HEPES-buffered saline (10 mM HEPES, 150 mM sodium chloride, pH 7.4) containing 0.005% surfactant P20 and 5 mM CaCl2 as a running buffer. All binding experiments were carried out at 25° C. with a constant flow rate of 20 μl/min. The different compounds dissolved in the running buffer (0.39 to 50 μM) were injected for 3 min, followed by a dissociation phase of 3 min. The sensor chip surface was regenerated after each experiment by injecting 10 μL of EDTA 0.5 M pH 8.0. A simple channel activated by EDC/NHS and deactivated with ethanolamine was used as control. The kinetic parameters were calculated using the BlAeval 4.1 software. Analysis was performed using the simple Langmuir binding model with separate ka/kd (kon/koff). The specific binding profiles were obtained after subtracting the response signal from the control channel and from blank-buffer injection. The fitting to each model was judged by the chi square value and randomness of residue distribution compared to the theoretical model (Langmuir binding 1:1).
The binding affinity of mannoside derivatives for the carbohydrate recognition domain (CRD) of DC-SIGN was assessed by surface plasmon resonance (SPR).
A CM5 sensor chip was functionalized with the DC-SIGN CRD, and increasing concentrations of the various compounds, mannan as a positive control and octaethyleneglycol (OEG) as a negative control, were injected over the chip surface. The association (kon) and dissociation (koff) rate constants and the resulting dissociation equilibrium constant (Kd=koff/kon) for each assessed compound were determined (see Table 1 hereunder).

HIV-1 R5 = HIV-1 R5 trans-infection of MAGI-CCR5 cells mediated by DCs; type: cell-based; settings: for residual level of trans-infection: HIV-1 R5, highest concentrations, relative to medium alone; for inhibition of HIV-1 trans-infection (in words): HIV-1 R5 where stated
Procedure: ManC1, […] (comparative) and compounds of the invention (ManC24, ManC17, TriManC24, TriDiManC24, TriManinsatC24 and ManinsatC24) were serially diluted in water. Human DCs (1×10^5 in 200 μl ) were pre-treated with different concentrations of compounds, or mannan (Sigma) or culture medium alone, in RPMI 1640 medium containing 10% FBS for 45 min at 37° C., prior infection with HIV-1 (100 ng of p24Gag) for 3 h. Excess free virus and molecules were removed by three washes. DCs were then cocultured with MAGI -CCR5 cells (1×10^5) at 37° C. plated in a 48-well plate. After two days, viral infection of MAGI-CCR5 cells was quantitated following beta-galactosidase assays and enumerating blue cells by light microscopy.
The IC50 were determined by serial dilution of each compound. The trans-infection assays were repeated a minimum of three times, and the IC50 determined using KaleidaGraph.
To investigate the ability of the compounds of the invention to inhibit HIV-1 trans infection, we chose to infect human DCs in order to best mimic in vivo conditions. Human DCs were exposed to different compounds (namely, Mannan (control), ManC1 (comparative), ManC11 (comparative), ManC17, ManC24, TriManC24, TriDiManC24, ManinsatC24 and TriManinsatC24) for 45 min at 37° C., before inoculation with HIV-1 (strains R5 and X4) for 3 hours. After extensive washings to remove unbound virions and mannosides, DCs were then co-cultured with MAGI-CCR5 cells. This procedure allows precise quantification of HIV-1 replication in reporter MAGI-CCR5 cells by detection of beta-galactosidase activity. These cells express an integrated copy of the HIV long terminal repeat (LTR) fused to the beta-galactosidase reporter gene, and express the CD4 receptor and the CCR5 and CXCR4 co-receptors, required for entry of HIV-1 R5 and X4 respectively. Upon viral entry leading to viral Tat expression and activation of the LTR, these cells permit quantification of HIV trans-infection after two days.

Dengue virus 2 (DV2) = test: Dengue virus (DV2) cis-infection of human DCs; type: cell-based; settings: for percentage of infected DCs: 48 hours
Procedure: Compounds of the invention (TriManC24, TriManinsatC24) were serially diluted in water. Human DCs (2.5×10^5 in 200 μl) in 48-well plates were pre-treated with different concentrations of compounds or culture medium alone, in RPMI 1640 medium […] for 30 min at 37° C. They were exposed to DV-2 at a multiplicity of infection of 1.0, for 2 h at 37° C. Cells were washed and cultured in complete RPMI medium (condition 1) or in complete medium containing the tested compounds (TriManC24, TriMannsatC24) (condition 2). After 48 h, supernatants were titered and cells were subjected to intracellular detection of viral antigens. DCs were fixed with 4% (v/v) paraformaldehyde and permeabilized with 0.1% (v/v) Triton X-100 for 3 min at room temperature. After washing, they were labeled with mouse anti-DV type 2 monoclonal antibody (3H5.1, Millipore) and stained with APC -conjugated rat anti-mouse IgG1. Fluorescence intensity of the cells was analyzed by flow cytometry (FACSCalibur, Becton Dickinson), using the Cell Quest Pro software.
There are four different dengue serotypes (1-4), and we have used DV type 2 (DV2) to further investigate the ability of the compounds of the invention (TriManC24 and TriManinsatC24) to inhibit the infection of human DCs. These cells were pre-treated with different concentrations of compounds or culture medium alone, for 30 min at 37° C. They were then exposed to DV2 for 2 hours at 37° C. Cells were washed to remove excess virions and compounds, and further cultured either in the absence (condition 1) or in the presence (condition 2) of the tested compounds. After 48 hours, cells were subjected to intracellular detection of viral antigens, and supernatants were titrated (not shown). […] FIG. 3A and FIG. 3B show the percentage of infected DCs when incubated with distinct concentrations of TriManinsatC24 in condition 1 and in condition 2, respectively. The histograms clearly show the protecting effects of TriManinsatC24, in particular in condition 2 wherein TriManinsatC24 at 10, 50 and 100 μM enabled the percentage of infected DCs to be reduced down to 40%, 20% and 2% respectively.

HIV-1 (R5 strain) = test: HIV-1 cis-infection and replication in DCs (p24Gag ELISA); type: cell-based; settings: 10 and 100 μM, p24Gag in supernatant
Procedure: Human monocyte-derived dendritic cells (2×10^5; 300 μL) in RPMI 1640 medium containing 10% FBS were pre-treated with either anti-DC-SIGN antibodies (clone AZND1, Beckman-Coulter; 10 μg/mL) or compounds TriManC24 and TriManC24insat (10 and 100 μM) for 30 min at 37° C., before inoculation with HIV-1 (R5 strain; 100 ng of p24Gag). After 3 h, cells were pelleted and extensively washed to remove excess virus and compounds. On day 2, 4 and 7 after infection, cells were pelleted, an aliquot of the supernatant was removed and kept at −20° C., and half of the supernatant was replaced with fresh medium. Viral replication was monitored by measuring p24Gag levels in the culture supernatant by an enzyme-linked immunosorbent assay (ELISA, Innogenetics). […] As shown in the case of Dengue virus, the compounds of the invention may also interfere with HIV cis-infection. […] Discussion

[1] = Hydrodynamic diameter of micelles (Zetasizer Nano ZS); type: physicochemical; settings: in water at 0.5 mg/ml
Procedure: DiManinsatC24 was prepared according a procedure similar to that used for the preparation of TriDiManC24 except that: • pentacosanoic acid was replaced by 10,12-pentacosadiynoic acid, and • before the coupling with 10,12-pentacosadiynoic acid, the benzyl groups of compound 33 were replaced by acetyl group so as to provide compound 108 (as illustrated in FIG. 3E). ^1H NMR δ(ppm) (MeOD, 400 MHz) 4.87 (s, 3H), 4.73 (s, 3H), 3.64-3.50 (m, 14H), 3.46-3.20 (m, 76H), 2.97-2.93 (m, 6H), 2.33 (t, 6H, J=6.8 Hz), 2.09-1.96 (m, 6H), 1.08-1.05 (m, 32H), 0.66 (t, 3H, J=6.8 Hz). ^13C NMR δ (ppm) (MeOD, 100 MHz) 173.7, 168.8, 104.2, 101.2, 80.6, 80.4, 75.1, 74.7, 72.5, 72.2, 72.1, 71.9, 71.8, 71.7, 71.6, 71.4, 69.4, 69.1, 68.9, 68.7, 68.6, 68.0, 63.2, 63.1, 42.2, 37.0, 34.8, 33.7, 33.1, 30.8, 30.7, 30.6, 30.5, 30.4, 30.2, 29.5, 28.1, 27.0, 26.0, 23.7, 19.7, 14.4. IR (neat film, cm^−1): 3353, 2924, 1716, 1636, 1350, 1182, 1095, 1035, 1009, 837, 669. • Determination of critical micelle concentrations (CMCs) and size of particles. The hydrodynamic diameters of micelles of glycolipids were measured in water using a Zetasizer Nano ZS system (Malvern Instruments). The CMCs were measured using pyrene as an extrinsic fluorescent probe and were carried out as described (Perino et al., 2011). Briefly, a range of glycolipid samples were dissolved in water (1 ml), with concentrations ranging from 1.0 to 0.001 mg/ml. A stock solution of pyrene (1 mM) was prepared in dimethyl sulfoxyde and was added to each sample. Fluorescent emission of pyrene was measured at 25° C. using a Fluorolog spectrofluorometer (Jobin Yvon, Horiba). The intensities of fluorescence emission were determined at 374 nm (I374) and at 383 nm (I383), with an excitation at a 339 nm wavelength. The ratios I374/I383 were calculated and plotted against the glycolipid concentration. The CMC value was determined at the intersection of the two straight lines.

[2] = Human immunodeficiency virus 1, MAGI-CCR5, read-out: IC50 of HIV-1 trans-infection

Row | Compound | koff (DC-SIGN CRD; 25° C., Langmuir 1:1) [s⁻¹] | kon (DC-SIGN CRD; 25° C., Langmuir 1:1) [M⁻¹ s⁻¹] | Kd (DC-SIGN CRD; Kd=koff/kon) [µM] | residual level of trans-infection (HIV-1 R5) [%] | binding to DC-SIGN CRD (in words) (DC-SIGN CRD) | inhibition of HIV-1 trans-infection (in words) (HIV-1 R5) | hydrodynamic diameter of micelles [1] [nm] | IC50 (HIV-1 R5; [2]) [µM] | further results
1 | CCCCCCCCCCCCC#CC#CCCCCCCCCC(=O)NCCOCCOCCOCC(=O)NCCOCCOCCOCCO[C@H]1O[C@H](CO)[C@@H](O)[C@H](O)[C@@H]1O [ManinsatC24] | 0.00138 | 538 | 2.57 | 15 | – | – | – | – | IC50 (HIV-1 R5; Human immunodeficiency virus 1, MAGI-CCR5, HIV-1 R5, read-out: IC50 of HIV-1 trans-infection): 61 µM
2 | mannan [reference compound] | – | – | – | – | bound efficiently | – | – | – | –
3 | CCCCCCCCCCCCC#CC#CCCCCCCCCC(=O)NC(COCCC(=O)NCCOCCOCCOCCOC1OC(CO)C(O)C(O)C1O)(COCCC(=O)NCCOCCOCCOCCOC1OC(CO)C(O)C(O)C1O)COCCC(=O)NCCOCCOCCOCCOC1OC(CO)C(O)C(O)C1O (centres unmarked) [TriManinsatC24] | – | – | 0.47 | 2 | – | almost fully blocked HIV trans-infection at the highest concentrations | – | – | inhibition of Dengue virus infection of DCs (in words) (Dengue virus 2 (DV2)): able to inhibit the direct infection of DCs by Dengue virus; percentage of infected DCs (Dengue virus 2 (DV2); condition 2, 10 μM): 40%; percentage of infected DCs (Dengue virus 2 (DV2); condition 2, 50 μM): 20%; percentage of infected DCs (Dengue virus 2 (DV2); condition 2, 100 μM): 2%; inhibition of HIV-1 cis-infection / replication in DCs (in words) (HIV-1 (R5 strain)): inhibit; inhibition of HIV-1 cis-infection / replication in DCs (in words) (HIV-1 (R5 strain); listed as TriManC24insat): decreases the amount of HIV R5 replication
4 | CCCCCCCCCCCCCCCCCC(=O)NCCOCCOCCOCC(=O)NCCOCCOCCOCCOC1OC(CO)C(O)C(O)C1O (centres unmarked) [ManC17] | – | – | – | – | bound with a low affinity | reduced trans-infection in a dose -dependent manner; also recorded: able to inhibit trans-infection to a similar extent; also recorded: inhibited in a dose -dependent manner | 17 | 120 | Kon (M^−1 · s^−1) (DC-SIGN CRD; 25° C., Langmuir 1:1): Low binding
5 | CCCCCCCCCCCCCCCCCCCCCCCCC(=O)NCCOCCOCCOCC(=O)NCCOCCOCCOCCOC1OC(CO)C(O)C(O)C1O (centres unmarked) [ManC24] | 9e-05 | 273 | – | – | – | reduced trans-infection in a dose -dependent manner; also recorded: able to inhibit trans-infection to a similar extent; also recorded: inhibited in a dose -dependent manner | 17 | 120 | KD (μM) (DC-SIGN CRD; Kd=koff/kon): sub-micromolar range
